Source: patent EP0501641A1, “L-2-oxothiazolidine-4-carboxylate and glutathion esters for the treatment of hepatic diseases” (CLINTEC NUTRITION COMPANY, priority 1991, dated 1992)

Test: Example 3: post liver transplant supplementation with glutathione methyl ester tablets, plasma glutathione monitored
Format: in vivo
Conditions: tablet t.i.d. containing 0.5 g, Normal Range 4.5
From the text: A person with primary biliary cirrhosis underwent liver transplant. In addition to routine post-surgery immuno-suppressive and nutritional therapies the patient received a glutathione-containing tablet t.i.d. containing 0.5 g glutathione methyl ester. The goal of the therapy was to normalize plasma and tissue glutathione status.
Plasma glutathione concentration was monitored periodically; values for Week 1 and Week 12 are given below: […]

Which results are given for `COC(=O)CNC(=O)[C@H](CS)NC(=O)CC[C@H](N)C(=O)O` [glutathione methyl ester]?
Plasma Glutathione (Week 1, person after liver transplant): 1.2 µM; Plasma Glutathione (Week 12): 3.9 µM
